Assay [1] deals with E. coli. Nature of the assay: microbe, parasite or virus in culture. The format is cell-based. Particulars: Escherichia coli. The method, then:
(§1) In vitro activity, method of dilutions in liquid medium:
(§2) A series of test 96-well microtiter plates are prepared in which the same quantity of sterile nutritive medium is distributed. […] After 24 h of incubation in a 37° C. oven, growth inhibition is evaluated by transillumination, which makes it possible to determine the minimum inhibitory concentrations (MICS) expressed in μg/ml.

Assay [2] concerns E. cloacae. The assay is described as follows: MIC, dilutions in liquid medium, alone and combined with NXL105. The format is cell-based. Particulars: Enterobacter cloacae, AmpC, read-out: MIC. The method, then: as §1, §2
In assay [3] the test system is K. pneumoniae. The description is as above. The format is cell-based. Particulars: Klebsiella pneumoniae, read-out: MIC. As to the method: as §1, §2
Assay [4] concerns K. oxytoca. The assay is described as above. The format is cell-based. The settings on record: Klebsiella oxytoca, read-out: MIC.
Assay [5] has as its system C. freundii. The description is as above. The format is cell-based. The settings on record: Citrobacter freundii, read-out: MIC.
Assay [6] relates to E. aerogenes. The description is as above. The format is cell-based. The settings on record: Klebsiella aerogenes, 24 h; E. aerogenes EAR2; Case-R + FEP-R; read-out: MIC.
Assay [7] has as its system P. aeruginosa (391 HT2). The assay is described as follows: MICs determined on microplates. The settings on record: Pseudomonas aeruginosa; sensitive strain P. aeruginosa 391 HT2. Type of assay: cell-based, Pseudomonas aeruginosa. The method, then:
(§3) The minimum inhibitory concentrations (MICs) of the products to be tested (products alone and combinations) are determined in advance. • For each concentration of product to be tested as well as the control stock, an Erlenmeyer flask containing 18.5 ml Muller-Hinton medium (Ca^++) is prepared. • From an overnight culture in broth or a bacterial suspension of OD (optical density)=1, a 1/100 dilution is prepared. • The sample is cultured with agitation for 2 h at 37° C. • OD is measured: if >0.5, the sample is diluted to 1/10. • Each Erlenmeyer flask is inoculated with 1 ml of the agitated culture or its dilution. The initial inoculum should be 1×10^6 CFU/ml. • The various antibiotic solutions are added at a volume of 0.5 ml and 0.5 ml of medium in the control Erlenmeyer flask. • With a volume of 0.1 ml, the control Erlenmeyer flask is numbered=TO. • The flask is incubated at 37° C. with agitation. • At each sampling point (2, 4, 6, 24, 48 hours), a volume of 0.1 ml is sampled from each Erlenmeyer flask and numbered. • Plates for all the numbered samples are incubated (24 h-48 h) at 37° C.
Bactericidal activity was evaluated on a sensitive strain of P. aeruginosa (391 HT2)

For assay [8], the system named is P. aeruginosa (391 HT2). Nature of the assay: MICs in a volume of 10 ml, bactericidal conditions (exponential bacterial growth). Type of assay: cell-based, Pseudomonas aeruginosa. The settings on record: Pseudomonas aeruginosa. As to the method:
as §3
For the bactericidal tests, MICs are determined in a volume of 10 ml-bactericidal conditions (exponential bacterial growth): […]

Values after ≈ are worked out from the molar mass of the structure shown. Read-outs that look alike come from different tables or passages of the source.

For `C[C@H]1[C@H](NC(=O)/C(=N\OC(C)(C)C(=O)O)c2csc(N)n2)C(=O)N1S(=O)(=O)O` [Aztreonam], the MIC in assay [1] (24 h, E. coli 2138, KPC-2 + TEM-1) was 32 µg/mL; in assay [1] (24 h, E. coli (no alias), CTX-M-15 + TEM-1 + OXA-1), 4 µg/mL; in assay [1] (24 h, E. coli IND, VEB-1 + CMY-2), more than 32 µg/mL; in assay [1] (24 h, E. coli TN06, CTX-M-2 + TEM-1), 8 µg/mL; in assay [1] (24 h, E. coli TN13, CTX-M-14 + CMY-2 + TEM-1), 16 µg/mL; in assay [1] (24 h, E. coli Tunisie clone E4, CTX-M-16 + TEM-1), 32 µg/mL. The MIC in assay [1] (E. coli (no alias), Cephalosporinase, read-out: MIC) amounted to 16 µg/mL (≈ 36.7 µM); in assay [1] (E. coli (no alias), SHV-4) it was 16 µg/mL (≈ 36.7 µM); in assay [1] (E. coli (no alias), TEM-3), 8 µg/mL (≈ 18.4 µM); in assay [2] (E. cloacae (no alias)), 16 µg/mL; in assay [2] (E. cloacae) it was 16 µg/mL; in assay [3] (24 h, K. pneumoniae 60, SHV-2 + TEM-2 + PER), 16 µg/mL. Moreover, the MIC came to 16 µg/mL in assay [3] (24 h, K. pneumoniae 157, SHV-5 + TEM-26); 16 µg/mL in assay [3] (24 h, K. pneumoniae 236, SHV-5 + TEM-10); 16 µg/mL in assay [3] (24 h, K. pneumoniae 253, SHV-2 + TEM-12 + CTX-M-2); 4 µg/mL in assay [3] (24 h, K. pneumoniae 427, SHV-1 + TEM-1B + CTX-M-3); 16 µg/mL in assay [3] (24 h, K. pneumoniae 441, SHV-1 + TEM-2 + PER); 8 µg/mL in assay [3] (24 h, K. pneumoniae 444, SHV-5 + TEM-2 + PER). In addition, the MIC in assay [3] (24 h, K. pneumoniae 1734, FOX-3 + TEM-1) turned out to be 8 µg/mL; in assay [3] (24 h, K. pneumoniae 9701, CMY-4 + TEM-1) it was 16 µg/mL; in assay [3] (24 h, K. pneumoniae Patient 1BHR, VIM-4 + CTX-M-15 = CMY-4 + TEM-1) it was 16 µg/mL; in assay [3] (24 h, K. pneumoniae SLK54, ACC-1 + TEM-1), 2 µg/mL; in assay [3] (24 h, K. pneumoniae TN58467, DHA-1 + SHV-2a + TEM-1), 16 µg/mL; in assay [3] (ATCC700603, K. pneumoniae ATCC 700603, SHV-18) it was 8 µg/mL. The MIC in assay [3] (K. pneumoniae 26, SHV-5) was 16 µg/mL; in assay [3] (K. pneumoniae KP04, CTX-M-14), 16 µg/mL; in assay [3] (K. pneumoniae VAKP, KPC-2), 16 µg/mL; in assay [4] (K. oxytoca 1431, TEM-129) it was more than 32 µg/mL; in assay [4] (K. oxytoca 16944, OXY-2, TEM-1) it was 32 µg/mL; in assay [5] (24 h, C. freundii (no alias), AmpC + TEM-1) it was 16 µg/mL. In addition, the MIC was found to be 8 µg/mL in assay [5] (C. freundii (no alias, table row r121), AmpC); 32 µg/mL in assay [5] (C. freundii (no alias, table row r122), AmpC); 16 µg/mL in assay [5] (C. freundii (no alias, table row r123), AmpC); 4 µg/mL in assay [5] (C. freundii (no alias, table row r125), AmpC); 16 µg/mL in assay [6].
Regarding `O=C(O)c1cn(C2CC2)c2cc(N3CCNCC3)c(F)cc2c1=O` [Ciprofloxacine], in assay [7], the MIC stood at 1 µg/mL.
As for `NC[C@H]1O[C@H](O[C@H]2[C@H](O)[C@@H](O[C@H]3O[C@H](CO)[C@@H](O)[C@H](N)[C@H]3O)[C@H](N)C[C@@H]2N)[C@H](N)C[C@@H]1O` [Tobramycin], the MIC in assay [7] and in assay [8] was 1 µg/mL each time.

The record behind these values is patent US20100092443A1, “NOVEL COMBINATIONS OF NITROGENATED HETEROCYCLIC ANTIBACTERIAL COMPOUNDS WITH OTHER ANTIBACTERIAL COMPOUNDS AND THE USE OF SAME AS DRUGS” (priority 2008, published 2010).
